The results in this text go back to ChEMBL document CHEMBL1201862, “PubChem BioAssay data set” (2004).

The structures appear in SMILES notation. Activity calls are given as the source filed them.

Experiment [1] deals with T1, Polyadenylate-binding protein 1 (Homo sapiens, UniProt P11940). The experiment in a line: MLLE domain peptide-binding blockers, IC50 – biochemical, fluorescence polarization, FITC-PAM2 peptide, dose response (AID 602259). The class given is functional. Conditions: read-out: IC50_Mean. In general terms: In fluorescence polarisation assays a small probe gives low polarisation when free and higher when bound to something large.

The target of experiment [2] is T2, Tyrosyl-DNA phosphodiesterase 2 (Homo sapiens, UniProt O95551).
T2 sequence (O95551 whole entry): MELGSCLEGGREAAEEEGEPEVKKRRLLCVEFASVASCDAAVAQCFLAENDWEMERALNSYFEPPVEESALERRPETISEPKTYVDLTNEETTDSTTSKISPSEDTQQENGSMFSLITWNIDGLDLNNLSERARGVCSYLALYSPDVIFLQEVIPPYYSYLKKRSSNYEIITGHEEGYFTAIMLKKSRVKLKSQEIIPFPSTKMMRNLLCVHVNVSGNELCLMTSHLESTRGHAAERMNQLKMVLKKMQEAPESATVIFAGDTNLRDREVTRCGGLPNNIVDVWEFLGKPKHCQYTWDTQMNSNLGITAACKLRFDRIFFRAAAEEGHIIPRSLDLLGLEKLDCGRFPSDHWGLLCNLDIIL
The experiment can be described thus: potency against TDP2 phosphodiesterase activity – biochemical, epi absorbance, IC50, dose response (AID 743297).

The target in another experiment is T3, Protein RecA (Mycobacterium tuberculosis, UniProt P9WHJ3).
T3 sequence (P9WHJ3 whole entry): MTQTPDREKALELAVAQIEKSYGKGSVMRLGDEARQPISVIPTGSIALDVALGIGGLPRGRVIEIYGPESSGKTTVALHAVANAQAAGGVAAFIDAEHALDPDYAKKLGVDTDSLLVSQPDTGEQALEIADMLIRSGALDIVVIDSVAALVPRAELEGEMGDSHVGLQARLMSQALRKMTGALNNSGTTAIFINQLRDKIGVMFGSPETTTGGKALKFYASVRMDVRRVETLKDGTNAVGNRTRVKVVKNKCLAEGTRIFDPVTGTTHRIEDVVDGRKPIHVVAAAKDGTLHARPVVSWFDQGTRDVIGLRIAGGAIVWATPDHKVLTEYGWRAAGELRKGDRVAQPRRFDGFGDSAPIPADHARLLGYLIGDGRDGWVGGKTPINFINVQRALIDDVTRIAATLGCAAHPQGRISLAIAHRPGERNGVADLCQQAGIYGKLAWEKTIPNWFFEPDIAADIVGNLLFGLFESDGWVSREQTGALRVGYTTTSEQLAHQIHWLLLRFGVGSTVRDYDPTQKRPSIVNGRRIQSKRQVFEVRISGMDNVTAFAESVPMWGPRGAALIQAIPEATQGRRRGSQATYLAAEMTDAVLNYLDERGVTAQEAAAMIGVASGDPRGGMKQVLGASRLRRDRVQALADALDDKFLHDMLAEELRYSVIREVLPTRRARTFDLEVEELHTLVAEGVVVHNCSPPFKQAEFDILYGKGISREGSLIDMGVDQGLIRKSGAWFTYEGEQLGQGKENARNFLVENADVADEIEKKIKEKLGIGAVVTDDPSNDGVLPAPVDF
The experiment can be described thus: Fluorescence Cell-Free Homogeneous Dose Retest to Identify Inhibitors of RecA-Intein Splicing Activity. [Related pubchem assays (depositor defined):AID2097, AID2223, AID489010, AID492950]. The class given is functional.

In experiment [3] the target is T1, Polyadenylate-binding protein 1. The experiment in a line: MLLE binding blockers, Cy5 peptide tracer – biochemical, fluorescence polarization, Cy5-PAM2 peptide, secondary, miRNA deadenylation inhibitor project, dose response (AID 602260). The class given is functional. To be noted: read-out: IC50_Mean.
In another experiment the target is Genome polyprotein (dengue virus type 2, UniProt P29990). The experiment in a line: flavivirus cap methylation enzyme inhibition – biochemical, confirmation dose response, primary screen (AID 588689). The format is functional.
Experiment [4] deals with T4, Replicative DNA helicase DnaB (Mycobacterium tuberculosis, UniProt P9WMR3).
T4 sequence (P9WMR3 whole entry): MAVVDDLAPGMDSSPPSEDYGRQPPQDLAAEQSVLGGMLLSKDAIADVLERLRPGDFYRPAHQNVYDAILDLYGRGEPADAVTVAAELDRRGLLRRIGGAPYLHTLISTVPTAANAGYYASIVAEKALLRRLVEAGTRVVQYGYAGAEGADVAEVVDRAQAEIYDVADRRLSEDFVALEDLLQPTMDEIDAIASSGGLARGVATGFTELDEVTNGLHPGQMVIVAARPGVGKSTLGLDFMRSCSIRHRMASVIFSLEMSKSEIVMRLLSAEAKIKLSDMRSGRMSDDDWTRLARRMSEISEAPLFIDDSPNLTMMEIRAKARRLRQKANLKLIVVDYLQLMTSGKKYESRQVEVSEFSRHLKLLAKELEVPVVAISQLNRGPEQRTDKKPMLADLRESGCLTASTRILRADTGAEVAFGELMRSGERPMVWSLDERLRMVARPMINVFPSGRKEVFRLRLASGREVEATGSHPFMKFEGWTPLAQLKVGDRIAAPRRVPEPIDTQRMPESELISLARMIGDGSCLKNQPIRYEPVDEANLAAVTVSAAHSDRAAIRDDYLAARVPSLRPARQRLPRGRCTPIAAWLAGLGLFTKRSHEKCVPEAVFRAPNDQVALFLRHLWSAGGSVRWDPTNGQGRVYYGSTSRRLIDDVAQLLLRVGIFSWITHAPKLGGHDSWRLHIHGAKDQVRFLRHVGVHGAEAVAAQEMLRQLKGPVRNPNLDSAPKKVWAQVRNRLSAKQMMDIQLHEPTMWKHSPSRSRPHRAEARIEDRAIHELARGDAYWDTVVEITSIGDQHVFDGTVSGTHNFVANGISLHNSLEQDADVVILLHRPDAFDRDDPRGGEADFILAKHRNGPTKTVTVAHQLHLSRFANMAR
The experiment in a line: DnaB intein splicing inhibitors, dose response, biochemical, cell-free fluorescence (AID 449749). The format is functional.

A short description of experiment [5]: NIH-3T3 fibroblast cytotoxicity, dose response, cytotoxicity control, cell-based, fluorescence, Alamar Blue, secondary assay (AID 2327).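 Note: NIH-3T3 mouse fibroblasts cultured with fluconazole at 8 µg/mL.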 The class given is functional.
The next experiment concerns Streptococcus. The experiment in a line: GAS UMAA2166 growth inhibition – luminescence, BacTiterGlo, counter-screen for streptokinase expression inhibitor project, dose response (AID 1915).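 Note: potency for reduction of bacterial viability or growth.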 The format is functional, organism-based. (In general: A counterscreen serves to expose hits that act by an unwanted route or on another target.)
The target of experiment [6] is T5, Apoptotic protease-activating factor 1 (Homo sapiens, UniProt O14727).
T5 sequence (O14727 whole entry): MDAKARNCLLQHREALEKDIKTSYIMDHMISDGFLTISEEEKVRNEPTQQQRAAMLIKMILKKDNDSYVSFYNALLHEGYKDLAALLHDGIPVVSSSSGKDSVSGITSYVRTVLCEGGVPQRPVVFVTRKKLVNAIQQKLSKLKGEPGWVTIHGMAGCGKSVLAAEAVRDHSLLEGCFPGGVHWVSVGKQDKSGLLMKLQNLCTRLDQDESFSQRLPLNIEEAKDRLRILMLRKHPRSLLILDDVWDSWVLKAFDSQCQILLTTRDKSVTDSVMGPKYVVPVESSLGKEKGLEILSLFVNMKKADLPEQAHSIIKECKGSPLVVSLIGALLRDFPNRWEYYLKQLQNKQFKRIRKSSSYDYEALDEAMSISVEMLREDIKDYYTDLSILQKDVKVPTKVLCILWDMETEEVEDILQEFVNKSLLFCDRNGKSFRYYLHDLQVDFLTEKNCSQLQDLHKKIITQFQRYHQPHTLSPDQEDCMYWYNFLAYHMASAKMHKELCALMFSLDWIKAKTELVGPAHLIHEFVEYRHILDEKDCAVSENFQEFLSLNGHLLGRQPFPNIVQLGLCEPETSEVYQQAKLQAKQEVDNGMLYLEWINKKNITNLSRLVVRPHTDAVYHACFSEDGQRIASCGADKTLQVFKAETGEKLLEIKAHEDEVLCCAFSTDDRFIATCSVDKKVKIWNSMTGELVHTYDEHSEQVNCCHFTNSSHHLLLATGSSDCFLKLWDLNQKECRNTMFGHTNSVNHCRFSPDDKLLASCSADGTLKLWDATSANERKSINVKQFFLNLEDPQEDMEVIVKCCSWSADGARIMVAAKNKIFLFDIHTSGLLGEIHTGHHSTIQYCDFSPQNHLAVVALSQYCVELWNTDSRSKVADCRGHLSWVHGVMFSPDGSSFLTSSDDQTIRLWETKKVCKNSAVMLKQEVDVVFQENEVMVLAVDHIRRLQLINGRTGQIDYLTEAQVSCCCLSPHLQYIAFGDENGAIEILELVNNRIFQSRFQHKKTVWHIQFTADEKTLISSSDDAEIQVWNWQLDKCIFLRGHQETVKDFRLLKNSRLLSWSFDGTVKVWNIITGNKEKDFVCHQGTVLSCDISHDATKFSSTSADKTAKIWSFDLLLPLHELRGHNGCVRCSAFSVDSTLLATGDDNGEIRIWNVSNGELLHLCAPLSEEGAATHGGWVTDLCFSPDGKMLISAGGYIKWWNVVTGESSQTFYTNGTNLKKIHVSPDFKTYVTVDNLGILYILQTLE
The format is functional.

Experiment [7] deals with Streptococcus sp. 'group A'. The experiment can be described thus: Streptococcus pyogenes SK(-)GAS viability under kanamycin – luminescence, BacTiterGlo, confirmation, counter-screen for streptokinase expression inhibitor project, dose response (AID 1900). The class given is functional, organism-based.
Experiment [8] can be described thus: fluconazole-exposed Candida albicans growth modulators – fluorescence, retest, confirmation (AID 2467). The format is functional, cell-based.
The target in the next experiment is T6, Streptokinase A (Streptococcus pyogenes serotype M1, UniProt P10520).
T6 sequence (P10520 whole entry): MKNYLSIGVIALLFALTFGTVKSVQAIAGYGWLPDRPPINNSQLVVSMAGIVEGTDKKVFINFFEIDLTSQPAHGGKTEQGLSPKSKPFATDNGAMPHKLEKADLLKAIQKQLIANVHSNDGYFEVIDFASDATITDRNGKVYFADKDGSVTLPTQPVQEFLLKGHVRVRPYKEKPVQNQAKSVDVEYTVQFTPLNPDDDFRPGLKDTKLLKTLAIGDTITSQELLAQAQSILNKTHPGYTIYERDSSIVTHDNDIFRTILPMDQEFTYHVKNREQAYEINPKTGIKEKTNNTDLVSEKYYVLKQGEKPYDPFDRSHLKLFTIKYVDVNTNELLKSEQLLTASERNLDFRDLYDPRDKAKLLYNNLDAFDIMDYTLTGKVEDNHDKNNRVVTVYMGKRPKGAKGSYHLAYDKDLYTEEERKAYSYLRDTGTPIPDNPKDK
The experiment can be described thus: viability-normalized secreted streptokinase activity reduction – plasminogen activation absorbance, OD405, dose response (AID 1914).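 Note: secreted streptokinase activity via plasminogen activation per viability signal from cell pellet.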 The format is functional, Streptococcus pyogenes M1 GAS.

Experiment [9] in a line: cytotoxicity toward HCT116 cells – cell-based, CellTiter-Glo luminescence, IC50, dose response (AID 1117332). The class given is functional. Conditions: HCT-116.
Experiment [10] in a line: SNU-C1 cell viability reduction, dose response, CellTiter-Glo luminescence (AID 1117323). The format is functional, cell-based.
Experiment [11] in a line: cytotoxicity toward Colo320 cells – cell-based, CellTiter-Glo luminescence, IC50, dose response (AID 1117334). The format is functional. To be noted: COLO 320.
The nature of experiment [12]: CellTiter-Glo luminescence survival assay, SW480 colon tumor line, concentration-response curve, half-maximal inhibitory concentration (AID 1117338). The class given is functional. On the technique in general: Cellular ATP, detected with luciferase, serves as a proxy for viable cell number.
Experiment [13] can be described thus: Reduced DLD-1 viability, concentration-response, CellTiter-Glo luminescence (AID 1117352). The format is functional.
Experiment [14] is described as follows: RKO cell viability reduction, dose response, CellTiter-Glo luminescence (AID 1117322). The class given is functional.
Experiment [15] can be described thus: cytotoxicity toward HT-29 cells – cell-based, CellTiter-Glo luminescence, IC50, dose response (AID 1117330). The format is functional.
Experiment [16] in a line: reduced cellular PGC1a acetyl-lysine signal – cell-based, cherry-picked samples, dose response (AID 720514).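 Note: potency may reflect raised or lowered acetylation signal.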 The format is functional.

T1 sequence (P11940 whole entry, the tested form may be a part): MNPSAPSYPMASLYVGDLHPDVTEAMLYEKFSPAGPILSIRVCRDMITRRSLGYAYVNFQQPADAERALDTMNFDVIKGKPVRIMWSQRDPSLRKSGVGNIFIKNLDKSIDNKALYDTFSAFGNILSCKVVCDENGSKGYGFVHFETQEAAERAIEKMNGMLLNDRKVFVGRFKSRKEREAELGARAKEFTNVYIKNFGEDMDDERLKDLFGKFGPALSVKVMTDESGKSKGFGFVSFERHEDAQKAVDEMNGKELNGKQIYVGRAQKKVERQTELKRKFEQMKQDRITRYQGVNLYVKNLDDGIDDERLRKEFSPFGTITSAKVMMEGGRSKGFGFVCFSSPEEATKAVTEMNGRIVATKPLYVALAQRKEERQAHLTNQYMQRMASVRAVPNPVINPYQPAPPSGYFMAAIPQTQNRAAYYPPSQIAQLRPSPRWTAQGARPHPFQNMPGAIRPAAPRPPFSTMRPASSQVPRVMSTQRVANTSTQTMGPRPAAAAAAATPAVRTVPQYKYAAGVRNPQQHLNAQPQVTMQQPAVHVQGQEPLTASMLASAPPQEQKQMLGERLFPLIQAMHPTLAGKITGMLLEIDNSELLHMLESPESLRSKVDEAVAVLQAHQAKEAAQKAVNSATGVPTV
Genome polyprotein, sequence (P29990 2492-3391 limits assumed): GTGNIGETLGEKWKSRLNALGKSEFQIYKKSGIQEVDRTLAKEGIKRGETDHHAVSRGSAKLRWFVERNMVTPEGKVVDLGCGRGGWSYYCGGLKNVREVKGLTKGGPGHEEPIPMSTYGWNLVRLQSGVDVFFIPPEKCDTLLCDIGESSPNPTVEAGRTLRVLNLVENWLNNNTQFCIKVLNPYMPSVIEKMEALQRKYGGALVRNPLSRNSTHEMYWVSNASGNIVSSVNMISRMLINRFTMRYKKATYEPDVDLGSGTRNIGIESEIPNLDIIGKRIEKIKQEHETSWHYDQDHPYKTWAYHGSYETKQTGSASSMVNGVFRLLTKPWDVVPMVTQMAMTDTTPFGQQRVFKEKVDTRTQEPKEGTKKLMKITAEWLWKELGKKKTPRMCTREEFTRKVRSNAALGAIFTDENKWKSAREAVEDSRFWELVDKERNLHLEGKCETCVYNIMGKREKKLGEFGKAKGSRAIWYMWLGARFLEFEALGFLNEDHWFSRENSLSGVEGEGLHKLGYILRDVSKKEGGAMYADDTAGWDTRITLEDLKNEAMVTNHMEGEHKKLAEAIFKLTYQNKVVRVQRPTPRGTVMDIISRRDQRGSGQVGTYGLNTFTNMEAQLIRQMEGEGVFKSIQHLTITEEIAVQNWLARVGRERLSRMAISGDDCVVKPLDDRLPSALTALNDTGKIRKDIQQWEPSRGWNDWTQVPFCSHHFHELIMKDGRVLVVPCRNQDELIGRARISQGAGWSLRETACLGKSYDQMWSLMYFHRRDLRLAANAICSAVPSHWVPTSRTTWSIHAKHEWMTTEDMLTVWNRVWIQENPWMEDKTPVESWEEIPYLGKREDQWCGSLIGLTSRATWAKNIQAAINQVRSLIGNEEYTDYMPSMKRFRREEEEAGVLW

By EC50 is commonly meant the concentration at which the effect is half-maximal. Broadly, the AC50 is the concentration giving half of the maximal activity seen. For the compound `Cc1[nH]n(-c2ccccc2)c(=O)c1C(c1ccc(C(=O)O)cc1)c1c(C)[nH]n(-c2ccccc2)c1=O`, the IC50 in [1] was > 66 µM (inactive); in [2] it was > 0.528 µM (active); in experiment [3], > 66 µM (inactive); on Genome polyprotein, 20.9 µM (active). Further, on Protein RecA, the EC50 is 656 nM (active). Further, the AC50 in experiment [4] was 915 nM (active).
For `Oc1c(Br)cc(Br)cc1CNc1cccc2cccnc12`, the values for the IC50 in experiment [2] and in experiment [6] were > 128 µM (inactive) and 40.2 µM (active), respectively. Moreover, the EC50 in experiment [5] is 101 µM (active); in the experiment on Streptococcus, 9.25 µM (active); in experiment [7] it was 6.08 µM (active); in [8] it was > 38 µM (not active); at Streptokinase A it was > 150 µM (not active).
As to `O=C(O)c1ccccc1S` [THIOSALICYLIC ACID], the IC50 in [9], in experiment [10], in [11], in experiment [12], in experiment [13] and in experiment [14] was > 20 µM (inactive) in each case. Besides, the IC50 in experiment [15] is > 20 µM (inactive).
For the compound `O=C(Nc1cccc(F)c1)N1CC(=O)N2[C@@H](CO)[C@@H](c3ccc(C#Cc4cccnc4)cc3)[C@@H]2C1`, the AC50 in experiment [16] was 4.54 µM (active).
